Experimental data published in patent US5262157A (priority 1988, dated 1993).

What was measured:
[1] = test system: Pneumocystis carinii; assay: Clinical effectiveness of aerosol pentamidine in prophylaxis of PCP; assay type: in vivo, human
Method: Each aerosol treatment was given over 15-30 minutes. […] 1.0, 1.5,or 2.0 ml aliquots were added to the nebulizer reservoir for doses of 30, 45, or 60 mg, respectively. Sterile pyrogen-free water was added to yield a total volume of 3.0 ml. Treatments were administered by a physician or registered nurse.
Prophylaxis was judged effective for an individual patient if that patient had no proven or probable episodes of PCP. Prophylaxis was considered a proven failure if a patinet developed pneumonia and P. carinii was found in stained preparations obtained by bronchoscopy or lung biopsy. Prophylaxis was considered a probable failure if a patient develops pneumonia and responded to empiric treatment with SXT […]. If a patient died and no autopsy was perfomed, the case was considered not evaluable unless there was evidence that the patient had good antemortem pulmonary function and died from other causes. If the latter conditions were met, the case was considered a probable success.
The treatment period was three months; patients were examined before and after each treatment and underwent pulmonary function testing and biochemical and hematologic tests before treatment no. 1 and after treatment nos. 1, 2, 4, and 6.
A total of 650 treatments were given. Treatment periods ranged from 1-12 months. […] They had no reactions after their first four doses and was receiving several other medications at the time the rash developed. […] Five proven episodes of PCP have occurred among patients who received biweekly doses of 30 mg; six proven episodes of PCP have occurred among patients who were treated with this dose, but who skipped one or more scheduled doses.
A total of 73 patients were enrolled over the past two months with approximately equal numbers at each dose level. […] Patients who were receiving the low dose have since been randomized to receive either 45 or 60 mg. To date two patients receiving 45 mg have had proven episodes of PCP.

[2] = test system: Pneumocystis carinii; assay: Experimental rat model of Pneumocystis carinii pneumonia (PCP); assay type: in vivo; conditions: for Cysts/hpf in lung at necropsy: high power field 400×
Method: Rats were treated in groups of four. […] Doses in all trials were calculated as above.
Treatment regimens were tested in the standard animal model of PCP (6). To induce infection with P. carinii, rats were immunosuppresed with steriods for twelve weeks while restricted to a low-protein diet and tetracycline. Administration of a test regimen was initiated early during the induction period to determine its effectiveness in preventing PCP and was initiated late during the induction period to determine its effectiveness in treating PCP. Male Sprague-Dawley rats weighing 175-225 g were used. Rats were given twice weekly subcutaneous injections of 75 mg/kg of cortisone acetate, were maintained on an 8% protein diet, and were treated with tetracycline via their drinking water. Rats were sacrificed after twelve weeks of this regimen and the extent of infection was judged by counting cysts in toluidine blue 0-stained smears of lung homogenates. Lung homogenates were prepared by combining a weighed portion of tissue with nine ml of 0.1N HCl per g.

[3] = aerosol 45 mg, weekly for four weeks then biweekly
[4] = Trial I, 0.4 mg/kg aerosol weekly, wk 5-11, mean ± standard deviation
[5] = Trial I, 4.0 mg/kg IM weekly, wk 5-11, mean ± standard deviation
[6] = Trial I, prophylactic aerosol 0.4 mg/kg weekly, weeks 5-11
[7] = Trial II, 0.2 mg/kg aerosol weekly, wk 7-11, mean ± standard deviation
[8] = Trial II, 0.4 mg/kg aerosol daily, 4×, wk 10, mean ± standard deviation
[9] = Trial III, 0.4 mg/kg aerosol biweekly, wks 7, 9, 11, mean ± standard deviation
[10] = Trial III, 0.4 mg/kg aerosol daily, 4×, wk 12, mean ± standard deviation
[11] = Trial III, 0.8 mg/kg aerosol monthly, wks 4, 8, mean ± standard deviation

N=C(N)c1ccc(OCCCCCOc2ccc(C(=N)N)cc2)cc1 [pentamidine, Pentamidine isethionate]
proven episodes of PCP ([1]; aerosol 30 mg biweekly, 60 patients, 1-12 months): Five
proven episodes of PCP in patients who skipped one or more scheduled doses ([1]; aerosol 30 mg biweekly, skipped doses): six
proven or possible episodes of PCP ([1]; aerosol 30 mg biweekly, twelve patients, three months): no patient had a proven or possible episode of PCP
protection ([1]; aerosol 30 mg dose): not reliably protective
patients with proven episodes of PCP [1, 3]: two
severity of PCP episodes [1, 3]: very mild episodes
mild cases of PCP ([1]; all phases, 960 doses, 116 patients): seven
protection ([1]; all phases, preliminary evidence): at least partially protective
Cysts/hpf in lung at necropsy ([2]; Trial I, 0.4 mg/kg aerosol weekly, wk 5-11): < 1 Cysts/hpf
Lung weight at necropsy [2, 4]: 1.94 ± 0.21 g
Pent in lung at necropsy [2, 4]: 29.7 ± 7.1 µg/g
Cysts/hpf in lung at necropsy [2, 5]: 102 ± 88 Cysts/hpf
Lung weight at necropsy [2, 5]: 3.28 ± 1.15 g
Pent in lung at necropsy [2, 5]: 4.5 ± 1.7 µg/g
effectiveness in prevention of PCP, aerosol versus IM ([2]; Trial I, aerosol 0.4 mg/kg vs IM 4.0 mg/kg weekly): more effective in prevention of PCP than tenfold higher doses of IM pentamidine
cysts of P. carinii in stained smears of lung homogenates [2, 6]: rare or absent
lung weight and appearance [2, 6]: normal in weight and appearance
severity of infection versus control animals [2, 6]: more than a thousandfold less severe infection than was seen in control animals
Lung weight at necropsy [2, 7]: 1.43 ± 0.31 g
Pent in lung at necropsy [2, 7]: 15.2 ± 5.0 µg/g
Cysts/hpf in lung at necropsy [2, 8]: 20.8 ± 30.8 Cysts/hpf
Lung weight at necropsy [2, 8]: 1.20 ± 0.20 g
Pent in lung at necropsy [2, 8]: 15.8 ± 10.9 µg/g
effectiveness of prophylactic regimen ([2]; Trial II, aerosol weekly, weeks 7-11, 0.1 mg/kg): effective
Cysts/hpf in lung at necropsy [2, 9]: 48 ± 109 Cysts/hpf
Lung weight at necropsy [2, 9]: 1.41 ± 0.64 g
Pent in lung at necropsy [2, 9]: 13.4 ± 7.9 µg/g
Cysts/hpf in lung at necropsy [2, 10]: 188 ± 255 Cysts/hpf
Lung weight at necropsy [2, 10]: 2.08 ± 0.68 g
Pent in lung at necropsy [2, 10]: 8.3 ± 6.4 µg/g
Cysts/hpf in lung at necropsy [2, 11]: 4.6 ± 4.2 Cysts/hpf
Lung weight at necropsy [2, 11]: 1.26 ± 0.26 g
Pent in lung at necropsy [2, 11]: 16.1 ± 3.3 µg/g
effectiveness of prophylactic regimens ([2]; Trial III, aerosol 0.8 mg/kg monthly and 0.4 mg/kg biweekly): effective
prevention of PCP in the animal model ([2]; low and infrequent aerosol treatment): highly effective in prevention of PCP
retention of aerosol pentamidine ([2]; normal animals and early prophylactic doses vs animals treated with severe pneumonia): greater in normal animals and in animals that received early prophylactic doses than it was in animals who were treated when they had severe pneumonia
effectiveness of therapeutic regimen ([2]; rat, in vivo): partially effective
number of cysts versus lung pentamidine concentration ([2]; within the prophylaxis and treatment groups): the lowest number of cysts were found in animals with the highest concentrations of pentamidine in the lung
